For one test, the target named is T1, IRAK4 (Homo sapiens, UniProt Q9NWZ3).
T1 construct: purchased CARNA Bioscience 09-145
T1 sequence (Q9NWZ3 1-460): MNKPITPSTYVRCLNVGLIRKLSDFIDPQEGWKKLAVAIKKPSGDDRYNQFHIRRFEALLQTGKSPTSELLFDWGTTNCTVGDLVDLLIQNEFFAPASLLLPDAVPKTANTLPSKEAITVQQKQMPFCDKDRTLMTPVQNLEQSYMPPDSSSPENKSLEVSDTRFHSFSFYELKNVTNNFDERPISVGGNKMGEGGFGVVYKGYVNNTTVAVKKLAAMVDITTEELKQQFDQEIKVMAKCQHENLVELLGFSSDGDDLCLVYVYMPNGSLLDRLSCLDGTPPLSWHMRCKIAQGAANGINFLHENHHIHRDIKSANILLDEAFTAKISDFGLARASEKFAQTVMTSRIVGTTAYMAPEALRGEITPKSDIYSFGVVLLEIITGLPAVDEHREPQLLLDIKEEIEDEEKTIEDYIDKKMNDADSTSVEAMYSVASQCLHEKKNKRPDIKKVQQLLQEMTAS
As to the kind of experiment: IRAK-4 activity inhibition assay (Caliper). The settings on record: 3.5 nM IRAK4, 37 μM ATP, 1.5 μM Peptide 8. It is filed as biochemical. The procedure: A 1× kinase base buffer was prepared from 50 mM HEPES, pH 7.5 and 0.0015% Brij-35. A stop buffer was prepared from 100 mM HEPES, pH 7.5, 0.015% Brij-35, 0.2% Coating Reagent #3, and 50 mM EDTA.
Test compound was diluted to 50× of the final desired highest inhibitor concentration in reaction by 100% DMSO. 100 ul of this compound dilution was transferred to a well in a 96-well plate.
Test compound was serially diluted by transferring 30 μl to 60 μl of 100% DMSO in the next well and so forth for a total of 10 concentrations. 100 μl of 100% DMSO was added to two empty wells for no compound control and no enzyme control in the same 96-well plate.
A new 96-well plate was marked as intermediate plate. 5 μl of compound serial dilution was transferred from source plate to the corresponding wells of the intermediate plate. 45 μl of 1× kinase base buffer (KB buffer) was added to each well of the intermediate plate. The intermediate plate was placed for 10 min on a shaker.
5 μl of each well was transferred from the 96-well intermediate plate to a 384-well plate in duplicates. For example, A1 of the 96-well plate is transferred to A1 and A2 of the 384-well plate. A2 of the 96-well plate is transferred to A3 and A4 of the 384-well plate, and so on.
IRAK4 and DTT in 1× kinase base buffer was added. The 2.5× enzyme mix contained 8.8 nM IRAK4 and 5 mM DTT.
Peptide 8, ATP, MgCl2 and MnCl2 were added in the 1× kinase base buffer. The 2.5× peptide mix contained 3.75 μM peptide 8, 92.5 μM ATP, 12.5 mM MgCl2 and 2.5 mM MnCl2.
Assay plate already contained 5 μl of compound in 10% DMSO. Added 10 μl of 2.5× enzyme solution to each well of the 384-well assay plate, except no enzyme control wells. The final concentration of IRAK4 in reaction was 3.5 nM. Added 10 μl of 1× kinase base buffer to no enzyme control wells in the assay plate. Incubated at room temperature for 10 min.
Added 10 μl of 2.5× peptide solution to each well of the 384-well assay plate. The final concentration of Peptide 8 and ATP was 1.5 μM and 37 μM, respectively. Incubated at 28° C. for 40 minutes. Added 25 μl of stop buffer to stop reaction. Collected data on Caliper.
Copied conversion % data from Caliper program. Converted conversion % values to percent inhibition values. Percent inhibition=(max−conversion %)/(max−min)*100, where “max” means the conversion % of DMSO control and “min” means the conversion % of no enzyme control.

In test [1] the test system is THP-1 cells. Briefly: LPS-induced cytokine production assay, TNFα. It is filed as cell-based. The settings on record: Homo sapiens, 300 ng/mL LPS, 5 hours, read-out: TNF (5 h). The method, then:
(§1) Provided compounds were also assayed in an LPS (Lipopolysacharide) or R848 (TLR-7 agonist) induced cytokine (e.g. TNFα and IL8) production assay in THP-1 cells, human peripheral blood mononuclear cells (hPBMC), and whole blood. The exemplary protocol for this assay in THP-1 cells was as follows below.
(§2) THP-1 cells from ATCC (TIB-202) were cultured in RPMI Medium 1640 (Invitrogen, Cat No. A10491-01), 10% fetal bovine serum (Invitrogen, Cat No. 10099141, Lot No. 8172882) containing 100 U/mL Penicillin, 100 μg/mL streptomycin (Invitrogen, Cat No. 15140-122), and 50 uM 2-Mercaptoethanol (Invitrogen, Cat No. 21985023). LPS-EK ultra pure (Invivogen, Cat No. tlrl-peklps) was used to induce IL8 and TNFα production, that is detected in the cell culture supernatant by IL8 HTRF kit (Cisbio, Cat No. 62IL8PEB) and TNFα HTRF kit (Cisbio, Cat No. 62TNFPEB), as per manufacturer instructions. Cells were cultured in 96 well assay plates at 100,000 cells per well, and compounds diluted in final 0.3% DMSO were pre-incubated with cells for 1 hour prior to stimulation with 300 ng/mL LPS. Cytokine production in cell supernatant was measured at 5 hours for TNFα and IL8 production, and for 16 hours for IL8 production and assessment of cell viability.

The subject of test [2] is THP-1 cells. Briefly: LPS-induced cytokine production assay, IL8. The format is cell-based. The settings on record: Homo sapiens, 300 ng/mL LPS, 16 hours, read-out: IL-8 (16 h). The method, then: as §1, §2

Structures can show the parent of a compound that is named as a salt.

The compound `CN(C)[C@H]1CC[C@H](Nc2ncnc3sc4cccc(CO)c4c23)CC1` [I-23, (4-(((1r,4r)-4-(dimethylamino)cyclohexyl)amino)benzo[4,5]thieno[2,3-d]pyrimidin-5-yl)methanol] registered an IC50 at IRAK4 not below 10000 nM.

As for `CN[C@H]1CC[C@H](Nc2ncnc3sc4ccccc4c23)CC1` [I-9, (1r,4r)-N1-(benzo[4,5]thieno[2,3-d]pyrimidin-4-yl)-N4-methylcyclohexane-1,4-diamine], the IC50 at IRAK4 is 100 to 1000 nM; with THP-1 cells [1], not below 1000 nM; with THP-1 cells [2], not above 1000 nM. At IRAK4, `OCc1ccc2sc3ncnc(N[C@H]4CC[C@H](N5CCOCC5)CC4)c3c2c1` [I-10, (4-(((1r,4r)-4-morpholinocyclohexyl)amino)benzo[4,5]thieno[2,3-d]pyrimidin-6-yl)methanol] gave an IC50 of 100 to 1000 nM. Still for that read-out and setting: with `CCOC(=O)Cc1ccc2sc3ncnc(N[C@H]4CC[C@H](N5CCOCC5)CC4)c3c2c1` [I-21, Ethyl 2-(4-(((1r,4r)-4-morpholinocyclohexyl)amino)benzo[4,5]thieno[2,3-d]pyrimidin-6-yl)acetate] the figure was 1000 to 10000 nM. `c1ccc2c(c1)sc1ncnc(N[C@H]3CC[C@H](N4CCOCC4)CC3)c12` [I-4, N-((1r,4r)-4-morpholinocyclohexyl)benzo[4,5]thieno[2,3-d]pyrimidin-4-amine]: the IC50 against IRAK4 was not above 100 nM; in the test with THP-1 cells [1] it was not above 1000 nM; in the test on THP-1 cells [2], not above 1000 nM. Regarding `CN(C)[C@H]1CC[C@H](Nc2ncnc3sc4ccccc4c23)CC1` [I-2, (1r,4r)-N1-(benzo[4,5]thieno[2,3-d]pyrimidin-4-yl)-N4,N4-dimethylcyclohexane-1,4-diamine], the IC50 on IRAK4 was not above 100 nM; in the test with THP-1 cells [1], not above 1000 nM; in the test on THP-1 cells [2] it was not above 1000 nM. As to `CNC(=O)c1ccc2sc3ncnc(N[C@H]4CC[C@H](N(C)C)CC4)c3c2c1` [I-14, 4-(((1r,4r)-4-(dimethylamino)cyclohexyl)amino)-N-methylbenzo[4,5]thieno[2,3-d]pyrimidine-6-carboxamide], the IC50 at IRAK4 lay in the range of 100 to 1000 nM. Same read-out and setting: in the case of `CN(C)C(=O)c1ccc2sc3ncnc(N[C@H]4CC[C@H](N(C)C)CC4)c3c2c1` [I-19, 4-(((1r,4r)-4-(dimethylamino)cyclohexyl)amino)-N,N-dimethylbenzo[4,5]thieno[2,3-d]pyrimidine-6-carboxamide] it was 1000 to 10000 nM; in that of `CCOC(=O)c1ccc2sc3ncnc(N[C@H]4CC[C@H](N5CCOCC5)CC4)c3c2c1` [I-8, Ethyl 4-(((1r,4r)-4-morpholinocyclohexyl)amino)benzo[4,5]thieno[2,3-d]pyrimidine-6-carboxylate], 100 to 1000 nM. As to `CN(C)[C@H]1CC[C@H](Nc2ncnc3sc4ccc(CO)cc4c23)CC1` [I-7, (4-(((1r,4r)-4-(dimethylamino)cyclohexyl)amino)benzo[4,5]thieno[2,3-d]pyrimidin-6-yl)methanol], the IC50 on IRAK4 was 100 to 1000 nM; in the test on THP-1 cells [1] it was not below 1000 nM; in the test on THP-1 cells [2], not above 1000 nM.

Take `CCOC(=O)c1ccc2sc3ncnc(N[C@H]4CC[C@H](N(C)C)CC4)c3c2c1` [I-5, ethyl 4-(((1r,4r)-4-(dimethylamino)cyclohexyl)amino)benzo[4,5]thieno[2,3-d]pyrimidine-6-carboxylate]: the values for the IC50 on IRAK4, with THP-1 cells [1] and with THP-1 cells [2] were not above 100 nM, not above 1000 nM and not above 1000 nM, respectively. Consider `NC(=O)c1ccc2sc3ncnc(N[C@H]4CC[C@H](N5CCOCC5)CC4)c3c2c1` [I-1, 4-(((1r,4r)-4-morpholinocyclohexyl)amino)benzo[4,5]thieno[2,3-d]pyrimidine-6-carboxamide], for which the IC50 on IRAK4 was not above 100 nM; in the test on THP-1 cells [1], not above 1000 nM; with THP-1 cells [2] it was not above 1000 nM. Compound `NC(=O)Cc1ccc2sc3ncnc(N[C@H]4CC[C@H](N5CCOCC5)CC4)c3c2c1` [I-18, 2-(4-(((1r,4r)-4-morpholinocyclohexyl)amino)benzo[4,5]thieno[2,3-d]pyrimidin-6-yl)acetamide] showed an IC50 on IRAK4 of 1000 to 10000 nM. The compound `CN(C)[C@H]1CC[C@H](Oc2ncnc3sc4ccccc4c23)CC1` [I-12, (1r,4r)-4-(benzo[4,5]thieno[2,3-d]pyrimidin-4-yloxy)-N,N-dimethylcyclohexanamine] gave an IC50 on IRAK4 of 100 to 1000 nM. With `CN(CC(=O)N1CCCC1)[C@H]1CC[C@H](Nc2ncnc3sc4ccccc4c23)CC1` [I-3, 2-(((1r,4r)-4-(benzo[4,5]thieno[2,3-d]pyrimidin-4-ylamino)cyclohexyl)(methyl)amino)-1-(pyrrolidin-1-yl)ethanone], the IC50 against IRAK4 is not above 100 nM; in the test on THP-1 cells [1], not below 1000 nM; with THP-1 cells [2] it was not above 1000 nM.

`c1ccc2c(c1)sc1ncnc(O[C@H]3CC[C@H](N4CCOCC4)CC3)c12` [I-16, 4-((1r,4r)-4-(benzo[4,5]thieno[2,3-d]pyrimidin-4-yloxy)cyclohexyl)morpholine] yielded an IC50 against IRAK4 of 100 to 1000 nM. On the same count and under the same terms, with `CCNC(=O)c1ccc2sc3ncnc(N[C@H]4CC[C@H](N(C)C)CC4)c3c2c1` [I-17, 4-(((1r,4r)-4-(dimethylamino)cyclohexyl)amino)-N-ethylbenzo[4,5]thieno[2,3-d]pyrimidine-6-carboxamide] the figure was 100 to 1000 nM; with `CN(C)C(=O)c1ccc2sc3ncnc(N[C@H]4CC[C@H](N5CCOCC5)CC4)c3c2c1` [I-20, N,N-dimethyl-4-(((1r,4r)-4-morpholinocyclohexyl)amino)benzo[4,5]thieno[2,3-d]pyrimidine-6-carboxamide], 1000 to 10000 nM.

Compound `OCCc1ccc2sc3ncnc(N[C@H]4CC[C@H](N5CCOCC5)CC4)c3c2c1` [I-15, 2-(4-(((1r,4r)-4-morpholinocyclohexyl)amino)benzo[4,5]thieno[2,3-d]pyrimidin-6-yl)ethanol] had an IC50 on IRAK4 of 100 to 1000 nM. As to `OCCc1ccc2sc3ncnc(O[C@H]4CC[C@H](N5CCOCC5)CC4)c3c2c1` [I-13, 2-(4-(((1r,4r)-4-morpholinocyclohexyl)oxy)benzo[4,5]thieno[2,3-d]pyrimidin-6-yl)ethanol], at IRAK4, the IC50 is 100 to 1000 nM.

On to `N[C@H]1CC[C@H](Nc2ncnc3sc4ccccc4c23)CC1` [I-11, (1r,4r)-N1-(benzo[4,5]thieno[2,3-d]pyrimidin-4-yl)cyclohexane-1,4-diamine hydrochloride], for which the IC50 against IRAK4 was in the range of 100 to 1000 nM. `CCOC(=O)c1cccc2sc3ncnc(N[C@H]4CC[C@H](N(C)C)CC4)c3c12` [I-22, ethyl 4-(((1r,4r)-4-(dimethylamino)cyclohexyl)amino)benzo[4,5]thieno[2,3-d]pyrimidine-5-carboxylate]: on IRAK4, the IC50 was not below 10000 nM.

For the origin of these results see US9481687B2, “IRAK inhibitors and uses thereof” (Nimbus Iris, Inc., priority 2012, dated 2016).
